Several values for one entry are separate records, joined by “and”; a condition that tells them apart may be missing. Equal entries are not always repeated. Where two headings read alike, the source gives them in different places.
Columns and labels:
[1] = biological target: T1, bovine β-cardiac myosin S1 (Bos taurus, UniProt Q9BE39); assay: Cardiac acto-myosin S1 ATPase (NADH-coupled); assay type: biochemical; parameters: myosin S1 ATPase activity vs F-actin concentration: unit not given here; conditions: for myosin S1 ATPase activity vs F-actin concentration: 100 μmol/L F10, Experiment # 1-9
T1 construct: IC50 for the ATPase activity of the isolated myosin motor domain; from tissue; host or cells: bovine ventricle
Method: Bovine cardiac myosin S1 was prepared from bovine ventricle as previously described. Rabbit skeletal F-actin was purchased from Cytoskeleton Inc. and prepared for experiments according to manufacturer’s instructions.
20 μL of enzyme mix in buffer A (composition in mmol L^−1: 10 MOPS, 0.1 EGTA, 1 DTT, pH 7) containing 500 nmol L^−1 bovine cardiac myosin S1, 40 U mL^−1 lactate dehydrogenase and 400 U mL^−1 pyruvate kinase were dispensed into a black 96-well half area plate (Greiner). […] Each assay plate contained five wells with DMSO only (negative control) and five wells with 10 μmol L^−1 Blebbistatin (positive control). Plates were incubated on a plate shaker at 30 °C for 10 min at 2000 rpm. […] 96-channel pipette. Plates were briefly mixed by shaking at 5000 rpm on a plate shaker and spun down at 3000 g for 10 s. NADH fluorescence intensity was measured for each well using a ClarioStar Plate Reader for 10 min every 30 sec at 30 °C with the following settings: excitation at 380 nm with a 10 nm bandwidth and emission at 470 nm with a 24 nm bandwidth. Data were recorded with BMG Labtech Reader Control Software v6.20.

[2] = test system: neuropeptide receptor NPYLR7; parameters: method as in PubChem; conditions: ref PubChem; cited from earlier work
[3] = biological target: bovine cardiac myosin S1 (Bos taurus, UniProt Q9BE39); assay: mant-ATP chase single nucleotide turnover, myosin S1; conditions: for Representative Traces (mant-ATP chase, normalised signal): representative trace, sheet Figure 3a;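 on all read-outs here: 0.4 µM S1 preloaded with equimolar mant-ATP, chased by 2 mM ATP, mant fluorescence (ex 360, em 450 nm) read each second over 15 min at 25 °C, biexponential fit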
From the text: In contrast to the isolated myosin motors, synthetic thick filaments contain two myosin head domains per molecule connected via their coiled-coil tail.
Chase of mant-ATP loaded cardiac myosin S1 with ATP leads to a decrease in the mant fluorescence intensity which is best described by a bi-exponential decay function with an initial fast phase followed by a second slower phase, corresponding to the so-called disordered (DRX) and super-relaxed state (SRX) of myosin, respectively.
Bovine myosin S1 and synthetic thick filament concentrations were adjusted to 0.4 μmol L^−1 with assay buffer and 40 μL aliquoted into individual wells of a black 384-well plate (Greiner). Mant-ATP (JenaBioscience) was added to each well to a final concentration of 0.4 μmol L^−1 using an automated injector unit in a ClarioStar Plate Reader (BMG LabTech) and the system was allowed to age for 1 min. The chase phase was started by adding a final concentration of 2 mmol L^−1 ATP using a second automated injector unit. Fluorescence intensity from each well was constantly measured for 15 min every 1 sec at 25 °C with the following settings: excitation at 360 nm with a 20 nm bandwidth and emission at 450 nm with a 20 nm bandwidth.

[4] = Beta-cardiac myosin S1, individual replicates

T1 sequence (Q9BE39 85-778 limits assumed): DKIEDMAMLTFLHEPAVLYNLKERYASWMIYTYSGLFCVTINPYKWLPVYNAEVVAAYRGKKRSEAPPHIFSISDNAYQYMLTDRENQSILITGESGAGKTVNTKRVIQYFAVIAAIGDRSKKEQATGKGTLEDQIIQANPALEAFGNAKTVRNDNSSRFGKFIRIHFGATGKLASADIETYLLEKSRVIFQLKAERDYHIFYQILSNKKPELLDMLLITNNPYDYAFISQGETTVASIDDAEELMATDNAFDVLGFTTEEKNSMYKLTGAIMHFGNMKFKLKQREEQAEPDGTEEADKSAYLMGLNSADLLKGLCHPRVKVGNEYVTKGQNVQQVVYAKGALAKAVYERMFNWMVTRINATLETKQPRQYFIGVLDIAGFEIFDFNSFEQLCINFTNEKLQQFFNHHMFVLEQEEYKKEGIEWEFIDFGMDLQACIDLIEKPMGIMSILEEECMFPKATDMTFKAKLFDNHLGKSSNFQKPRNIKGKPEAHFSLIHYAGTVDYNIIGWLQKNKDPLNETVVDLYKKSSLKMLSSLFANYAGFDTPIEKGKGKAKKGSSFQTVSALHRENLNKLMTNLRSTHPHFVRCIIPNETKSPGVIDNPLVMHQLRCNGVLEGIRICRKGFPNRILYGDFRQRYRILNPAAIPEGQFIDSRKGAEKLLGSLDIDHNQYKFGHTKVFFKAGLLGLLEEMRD
T1 sequence (P85100 whole entry partner, the tested form may be a part): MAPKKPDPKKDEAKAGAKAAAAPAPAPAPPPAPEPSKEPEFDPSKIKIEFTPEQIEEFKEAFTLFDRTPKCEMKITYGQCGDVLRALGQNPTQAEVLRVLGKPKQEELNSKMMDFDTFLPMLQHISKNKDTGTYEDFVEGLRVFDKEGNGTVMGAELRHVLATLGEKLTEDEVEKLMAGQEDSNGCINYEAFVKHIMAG
Chain of bovine cardiac myosin S1 (Q9BE39 85-778 limits assumed): as the sequence (Q9BE39 85-778 limits assumed) above
Chain of bovine cardiac myosin S1 (P85100 whole entry partner): as the sequence (P85100 whole entry partner, the tested form may be a part) above

CCc1cc2c(=O)n(NC(=S)NC(C)C)cnc2s1 [F10]
EC50 [1]: ~20 µM | LE (ligand efficiency) [1]: 0.34 | reduction of F-actin stimulated ATPase activity ([1]; 10 μmol L^−1, mean ± s.e.m., n = 4): 44 ± 2% | myosin S1 ATPase activity vs F-actin concentration ([1]; F-Actin 0 μmol L^−1): 0 | myosin S1 ATPase activity vs F-actin concentration ([1]; F-Actin 6.25 μmol L^−1): 0.1565 and 0.1528 and 0.08965 and 0.1313 and 0.1366 and 0.1027 and 0.1063 | myosin S1 ATPase activity vs F-actin concentration ([1]; F-Actin 80 μmol L^−1): 0.417 and 0.4489 and 0.3031 | remaining activity at 12.207 µM ([1]; F10 0.012207 mmol L-1 (so in the source), Experiment # 1-6, read-out: acto-myosin S1 ATPase activity, dose-response): 92.9% | remaining activity at 24.414 µM ([1]; F10 0.024414 mmol L-1 (so in the source), Experiment # 1-6, read-out: acto-myosin S1 ATPase activity, dose-response): 101% | remaining activity at 48.828 µM ([1]; F10 0.048828 mmol L-1 (so in the source), Experiment # 1-6, read-out: acto-myosin S1 ATPase activity, dose-response): 99.4% | remaining activity at 97.656 µM ([1]; F10 0.097656 mmol L-1 (so in the source), Experiment # 1-6, read-out: acto-myosin S1 ATPase activity, dose-response): 92.7% | remaining activity at […] ([1]; F10 0.195313 mmol L-1 (so in the source), Experiment # 1-6, read-out: acto-myosin S1 ATPase activity, dose-response): 94.4% | remaining activity at 390.625 µM ([1]; F10 0.390625 mmol L-1 (so in the source), Experiment # 1-6, read-out: acto-myosin S1 ATPase activity, dose-response): 98.9% | remaining activity at 781.25 µM ([1]; F10 0.78125 mmol L-1 (so in the source), Experiment # 1-6, read-out: acto-myosin S1 ATPase activity, dose-response): 100% | remaining activity at […] ([1]; F10 3.125 mmol L-1 (so in the source), Experiment # 1-6, read-out: acto-myosin S1 ATPase activity, dose-response): 86.8% | remaining activity at […] ([1]; F10 6.25 mmol L-1 (so in the source), Experiment # 1-6, read-out: acto-myosin S1 ATPase activity, dose-response): 79.3% | remaining activity at […] ([1]; F10 12.5 mmol L-1 (so in the source), Experiment # 1-6, read-out: acto-myosin S1 ATPase activity, dose-response): 69.6% | IC50 ([1]; IC50 acto-myosin S1 ATPase activity, means ± s.e.m., n = 6): 21.3 ± 3.4 µM | maximal decrease of actomyosin ATPase activity ([1]; dose-response, means ± s.e.m., n = 6): 89 ± 5% | maximal rate of ATP hydrolysis (kcat) ([1]; in the presence of 100 μmol/L F10, control about 1.3): about 0.5 s^−1 head^−1 | apparent dissociation equilibrium constant for F-actin binding (Kapp) ([1]; in the presence of F10 (same in its absence)): about 20 μmol L^−1 | IC50 ([1]; means ± s.e.m., n = 6, read-out: IC50 acto-myosin S1 ATPase activity): 21 ± 3 µM | acto-myosin S1 ATPase activity, normalized to DMSO control ([1]; single dose 10 μmol L^−1 compound, 10 μmol L^−1 F-actin, Repeat #1-#4, listed as 70): 59 and 55 and 52 and 58 | biological activity in primary screen [2]: without, however, any biological activity | kslow ([3]; 2 μmol L^-1 Mavacamten or 20 μmol L^-1 F10, control 0.0058 ± 0.0010): 0.0014 ± 0.0002 s⁻¹ | kfast [3, 4]: 0.05055 s⁻¹ and 0.0447 s⁻¹ and 0.0368 s⁻¹ and 0.05306 s⁻¹ and 0.06378 s⁻¹ and 0.02378 s⁻¹ | kslow [3, 4]: 0.0006967 s⁻¹ and 0.00183 s⁻¹ and 0.001814 s⁻¹ and 0.000778 s⁻¹ and 0.001483 s⁻¹ and 0.001764 s⁻¹ | slow phase [3, 4]: 77.15% and 78.62% and 63.91% and 49.91% and 65.48% and 83.8% | Representative Traces, normalised fluorescence ([3]; t 396 s): 0.3381 | Representative Traces, normalised fluorescence ([3]; t 397 s): 0.3913 | Representative Traces, normalised fluorescence ([3]; t 398 s): 0.3527 | Representative Traces, normalised fluorescence ([3]; t 399 s): 0.3731 | Representative Traces, normalised fluorescence ([3]; t 400 s): 0.3893 | Representative Traces, normalised fluorescence ([3]; t 401 s): 0.3649 | Representative Traces, normalised fluorescence ([3]; t 402 s): 0.346 | Representative Traces, normalised fluorescence ([3]; t 403 s): 0.3664 | Representative Traces, normalised fluorescence ([3]; t 404 s): 0.3754 | Representative Traces, normalised fluorescence ([3]; t 405 s): 0.395 | Representative Traces, normalised fluorescence ([3]; t 406 s): 0.3542 | Representative Traces, normalised fluorescence ([3]; t 407 s): 0.3529 | Representative Traces, normalised fluorescence ([3]; t 408 s): 0.371 | Representative Traces, normalised fluorescence ([3]; t 409 s): 0.3805 | Representative Traces, normalised fluorescence ([3]; t 410 s): 0.3829 | Representative Traces, normalised fluorescence ([3]; t 411 s): 0.3594 | Representative Traces, normalised fluorescence ([3]; t 412 s): 0.3318 | Representative Traces, normalised fluorescence ([3]; t 413 s): 0.3454 | Representative Traces, normalised fluorescence ([3]; t 414 s): 0.3732 | Representative Traces, normalised fluorescence ([3]; t 415 s): 0.3239 | Representative Traces, normalised fluorescence ([3]; t 416 s): 0.3536 | Representative Traces, normalised fluorescence ([3]; t 417 s): 0.3763 | Representative Traces, normalised fluorescence ([3]; t 418 s): 0.4062 | Representative Traces, normalised fluorescence ([3]; t 419 s): 0.3409 | Representative Traces, normalised fluorescence ([3]; t 420 s): 0.3417 | Representative Traces, normalised fluorescence ([3]; t 421 s): 0.3218 | Representative Traces, normalised fluorescence ([3]; t 422 s): 0.3761 | Representative Traces, normalised fluorescence ([3]; t 423 s): 0.3809 | Representative Traces, normalised fluorescence ([3]; t 424 s): 0.3886 | Representative Traces, normalised fluorescence ([3]; t 425 s): 0.4176 | Representative Traces, normalised fluorescence ([3]; t 426 s): 0.3716 | Representative Traces, normalised fluorescence ([3]; t 427 s): 0.348 | Representative Traces, normalised fluorescence ([3]; t 428 s): 0.3822 | Representative Traces, normalised fluorescence ([3]; t 429 s): 0.3572 | Representative Traces, normalised fluorescence ([3]; t 430 s): 0.3286 | Representative Traces, normalised fluorescence ([3]; t 431 s): 0.4152 | Representative Traces, normalised fluorescence ([3]; t 432 s): 0.3207 | Representative Traces, normalised fluorescence ([3]; t 433 s): 0.376 | Representative Traces, normalised fluorescence ([3]; t 434 s): 0.351 | Representative Traces, normalised fluorescence ([3]; t 435 s): 0.3814 | Representative Traces, normalised fluorescence ([3]; t 436 s): 0.3747 | Representative Traces, normalised fluorescence ([3]; t 437 s): 0.339 | Representative Traces, normalised fluorescence ([3]; t 438 s): 0.3394 | Representative Traces, normalised fluorescence ([3]; t 439 s): 0.2828 | Representative Traces, normalised fluorescence ([3]; t 440 s): 0.3588 | Representative Traces, normalised fluorescence ([3]; t 441 s): 0.3824 | Representative Traces, normalised fluorescence ([3]; t 442 s): 0.3473 | Representative Traces, normalised fluorescence ([3]; t 443 s): 0.3776 | Representative Traces, normalised fluorescence ([3]; t 444 s): 0.2942 | Representative Traces, normalised fluorescence ([3]; t 445 s): 0.3451 | Representative Traces, normalised fluorescence ([3]; t 446 s): 0.3599 | Representative Traces, normalised fluorescence ([3]; t 447 s): 0.3632 | Representative Traces, normalised fluorescence ([3]; t 448 s): 0.3962 | Representative Traces, normalised fluorescence ([3]; t 449 s): 0.3522 | Representative Traces, normalised fluorescence ([3]; t 450 s): 0.334 | Representative Traces, normalised fluorescence ([3]; t 451 s): 0.3312 | Representative Traces, normalised fluorescence ([3]; t 452 s): 0.3355 | Representative Traces, normalised fluorescence ([3]; t 453 s): 0.3202 | Representative Traces, normalised fluorescence ([3]; t 454 s): 0.3011 | Representative Traces, normalised fluorescence ([3]; t 455 s): 0.3492 | Representative Traces, normalised fluorescence ([3]; t 456 s): 0.2942 | Representative Traces, normalised fluorescence ([3]; t 457 s): 0.3901 | Representative Traces, normalised fluorescence ([3]; t 458 s): 0.3305 | Representative Traces, normalised fluorescence ([3]; t 459 s): 0.3712 | Representative Traces, normalised fluorescence ([3]; t 460 s): 0.3492 | Representative Traces, normalised fluorescence ([3]; t 461 s): 0.3691 | Representative Traces, normalised fluorescence ([3]; t 462 s): 0.3499 | Representative Traces, normalised fluorescence ([3]; t 463 s): 0.3959 | Representative Traces, normalised fluorescence ([3]; t 464 s): 0.3352 | Representative Traces, normalised fluorescence ([3]; t 465 s): 0.2964 | Representative Traces, normalised fluorescence ([3]; t 466 s): 0.3332 | Representative Traces, normalised fluorescence ([3]; t 467 s): 0.3397 | Representative Traces, normalised fluorescence ([3]; t 468 s): 0.2957 | Representative Traces, normalised fluorescence ([3]; t 469 s): 0.3164 | Representative Traces, normalised fluorescence ([3]; t 470 s): 0.3318 | Representative Traces, normalised fluorescence ([3]; t 471 s): 0.303 | Representative Traces, normalised fluorescence ([3]; t 472 s): 0.2843 | Representative Traces, normalised fluorescence ([3]; t 473 s): 0.3488 | Representative Traces, normalised fluorescence ([3]; t 474 s): 0.3514 | Representative Traces, normalised fluorescence ([3]; t 475 s): 0.3348 | Representative Traces, normalised fluorescence ([3]; t 476 s): 0.2621 | Representative Traces, normalised fluorescence ([3]; t 477 s): 0.3016 | Representative Traces, normalised fluorescence ([3]; t 478 s): 0.2808 | Representative Traces, normalised fluorescence ([3]; t 479 s): 0.2939 | Representative Traces, normalised fluorescence ([3]; t 480 s): 0.3383 | Representative Traces, normalised fluorescence ([3]; t 481 s): 0.3502 | Representative Traces, normalised fluorescence ([3]; t 482 s): 0.3436 | Representative Traces, normalised fluorescence ([3]; t 483 s): 0.4051 | Representative Traces, normalised fluorescence ([3]; t 484 s): 0.3367 | Representative Traces, normalised fluorescence ([3]; t 485 s): 0.376 | Representative Traces, normalised fluorescence ([3]; t 486 s): 0.3528 | Representative Traces, normalised fluorescence ([3]; t 487 s): 0.3472 | Representative Traces, normalised fluorescence ([3]; t 488 s): 0.3853 | Representative Traces, normalised fluorescence ([3]; t 489 s): 0.3935 | Representative Traces, normalised fluorescence ([3]; t 490 s): 0.3358 | Representative Traces, normalised fluorescence ([3]; t 491 s): 0.3169 | Representative Traces, normalised fluorescence ([3]; t 492 s): 0.3123 | Representative Traces, normalised fluorescence ([3]; t 493 s): 0.2845 | Representative Traces, normalised fluorescence ([3]; t 494 s): 0.2849 | Representative Traces, normalised fluorescence ([3]; t 495 s): 0.3259 | Representative Traces (mant-ATP chase, normalised signal) ([3]; t = 796 s): 0.1783 | Representative Traces (mant-ATP chase, normalised signal) ([3]; t = 797 s): 0.1159
